Data taken from publication doi:10.1101/2025.01.10.632200, “Chemoproteomic Profiling of C. albicans for Characterization of Anti-fungal Kinase Inhibitors” (bioRxiv, 2025).

Key:
Type in all cases: biochemical
Yck2 [1] = target: T1, Yck2 (Candida albicans, UniProt A0A1D8PKB4); experiment: purified enzyme kinase assay
Yck2 [2] = target: T1, Yck2; experiment: purified enzyme kinase assay; also NanoBRET ([…]) and MIB/MS competition
p38α = target: T2, p38α (Homo sapiens, UniProt Q16539); experiment: purified enzyme kinase assay; also NanoBRET ([…])
T2 construct: gene MAPK14
T2 sequence (Q16539 2-360): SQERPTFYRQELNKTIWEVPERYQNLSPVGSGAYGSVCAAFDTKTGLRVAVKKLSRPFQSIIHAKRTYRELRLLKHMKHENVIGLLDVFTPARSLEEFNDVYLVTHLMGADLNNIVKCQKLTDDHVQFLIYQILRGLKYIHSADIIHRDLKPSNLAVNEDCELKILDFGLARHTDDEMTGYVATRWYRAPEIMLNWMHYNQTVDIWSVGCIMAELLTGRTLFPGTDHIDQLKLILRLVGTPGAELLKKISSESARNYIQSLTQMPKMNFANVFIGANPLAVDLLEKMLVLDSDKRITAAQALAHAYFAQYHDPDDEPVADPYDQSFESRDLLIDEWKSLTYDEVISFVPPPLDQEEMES

CK1α = target: T3, CK1α (Homo sapiens, UniProt P48729); experiment: purified enzyme kinase assay
T3 construct: gene CSNK1A1
T3 sequence (P48729 2-337): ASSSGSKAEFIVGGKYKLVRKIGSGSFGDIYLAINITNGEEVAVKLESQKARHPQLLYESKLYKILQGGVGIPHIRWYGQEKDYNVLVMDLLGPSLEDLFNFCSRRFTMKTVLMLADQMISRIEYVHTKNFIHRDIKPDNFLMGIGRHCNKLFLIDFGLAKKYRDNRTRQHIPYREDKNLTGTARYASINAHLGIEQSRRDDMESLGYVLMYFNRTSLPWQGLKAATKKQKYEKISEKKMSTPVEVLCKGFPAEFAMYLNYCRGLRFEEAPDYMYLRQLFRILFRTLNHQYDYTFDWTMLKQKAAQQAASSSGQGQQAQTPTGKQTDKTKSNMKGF

Yck2 [3] = target: T1, Yck2; experiment: purified enzyme kinase assay; also NanoBRET ([…])

T1 sequence (A0A1D8PKB4 entry or part of it): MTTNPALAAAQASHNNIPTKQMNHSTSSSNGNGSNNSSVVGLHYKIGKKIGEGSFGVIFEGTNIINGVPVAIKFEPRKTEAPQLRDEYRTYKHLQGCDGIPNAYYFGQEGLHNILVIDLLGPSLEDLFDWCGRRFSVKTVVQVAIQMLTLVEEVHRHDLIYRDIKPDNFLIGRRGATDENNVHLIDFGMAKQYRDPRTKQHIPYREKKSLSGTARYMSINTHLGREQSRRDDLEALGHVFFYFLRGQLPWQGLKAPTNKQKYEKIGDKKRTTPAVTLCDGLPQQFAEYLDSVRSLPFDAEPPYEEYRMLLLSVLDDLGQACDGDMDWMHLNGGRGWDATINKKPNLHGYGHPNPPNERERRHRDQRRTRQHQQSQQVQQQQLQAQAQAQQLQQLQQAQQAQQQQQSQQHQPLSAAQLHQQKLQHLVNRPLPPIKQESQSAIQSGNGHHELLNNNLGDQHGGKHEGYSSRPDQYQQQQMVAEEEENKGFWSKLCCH

Question: For `Cc1nc(N)sc1-c1ccnc(Nc2ccc(N3CCOCC3)cc2)n1` [Cyc-116], which IC50 (Yck2 [1]) is on record?
Answer: 0.14 µM

Question: Which IC50 (Yck2 [2]) does the source give for `Cc1n[nH]c2ccc(-c3cc(OC[C@@H](N)Cc4ccccc4)cnc3-c3ccoc3)cc12` [GSK, GSK507358A] here?
Answer: 0.16 µM

Question: How did the IC50 (p38α) turn out when `Cc1ccc2c(-c3ccncc3)c(-c3ccc(F)cc3)nn2c1` [GW, GW461484A] was run?
Answer: 0.17 µM

Question: Which IC50 (CK1α) does the source give for `CN1CCC(F)(Cn2cnc(-c3ccc(F)cn3)c2-c2ccnc3[nH]ccc23)CC1` [MU1742] here?
Answer: 0.014 µM

Question: How did the IC50 (Yck2 [3]) turn out when `CC(=O)c1cnc2ccc(-c3cc(Cl)c(O)c(Cl)c3)nc2c1N[C@H]1CC[C@H](CN(C)C)CC1` [OTS-167] was run?
Answer: 0.13 µM
